From PMC8800111 (The Journal of Biological Chemistry, 2021)

Columns and labels:
Format in all cases: cell-based
[1] = target: proteins of U3A human fibrosarcoma cells (4462 proteins detected) (Homo sapiens, UniProt Q8NB16); details: protein MLKL; U3A, 10 μM, 2 h
[2] = target: proteins of U3A human fibrosarcoma cells (4462 proteins detected) (Homo sapiens, UniProt Q15051); details: protein IQCB1; U3A, 10 μM, 2 h
[3] = target: proteins of U3A human fibrosarcoma cells (4462 proteins detected) (Homo sapiens, UniProt P63173); details: protein RPL38; U3A cells
[4] = target: proteins of U3A human fibrosarcoma cells (4462 proteins detected) (Homo sapiens, UniProt Q9BYM8); details: protein RBCK1; U3A, 10 μM, 2 h
Sequence of proteins of U3A human fibrosarcoma cells (4462 proteins detected) (Homo sapiens, UniProt Q9BYM8) (Q9BYM8 whole entry): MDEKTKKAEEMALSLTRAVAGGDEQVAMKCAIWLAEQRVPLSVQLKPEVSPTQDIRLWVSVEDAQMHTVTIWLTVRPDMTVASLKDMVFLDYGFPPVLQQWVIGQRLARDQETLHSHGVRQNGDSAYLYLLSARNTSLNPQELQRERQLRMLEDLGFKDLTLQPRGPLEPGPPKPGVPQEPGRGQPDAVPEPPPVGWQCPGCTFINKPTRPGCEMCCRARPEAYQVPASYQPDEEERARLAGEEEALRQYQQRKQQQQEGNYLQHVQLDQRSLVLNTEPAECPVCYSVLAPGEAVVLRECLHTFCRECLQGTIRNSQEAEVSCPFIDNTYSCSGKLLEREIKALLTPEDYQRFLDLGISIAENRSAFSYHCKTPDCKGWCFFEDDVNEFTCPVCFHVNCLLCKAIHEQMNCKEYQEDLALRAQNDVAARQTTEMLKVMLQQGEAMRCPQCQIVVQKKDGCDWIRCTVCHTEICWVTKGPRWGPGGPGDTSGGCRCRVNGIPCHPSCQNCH

[5] = target: proteins of U3A human fibrosarcoma cells (4462 proteins detected) (Homo sapiens, UniProt O60573); details: protein EIF4E2; soluble abundance after heat, U3A cells
Sequence of proteins of U3A human fibrosarcoma cells (4462 proteins detected) (Homo sapiens, UniProt O60573) (O60573 whole entry): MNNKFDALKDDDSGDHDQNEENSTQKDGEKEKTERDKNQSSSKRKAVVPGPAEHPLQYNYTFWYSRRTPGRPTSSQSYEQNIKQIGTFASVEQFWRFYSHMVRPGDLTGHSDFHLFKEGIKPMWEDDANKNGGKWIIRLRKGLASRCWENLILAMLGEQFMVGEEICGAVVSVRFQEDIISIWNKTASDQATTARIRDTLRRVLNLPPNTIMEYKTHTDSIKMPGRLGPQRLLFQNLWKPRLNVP

[6] = target: proteins of U3A human fibrosarcoma cells (4462 proteins detected) (Homo sapiens, UniProt Q8IVD9); details: protein NUDCD3; soluble abundance after heat, U3A cells
[7] = target: proteins of U3A human fibrosarcoma cells (4462 proteins detected) (Homo sapiens, UniProt Q16658); details: protein FSCN1, U3A cells
[8] = target: proteins of U3A human fibrosarcoma cells (4462 proteins detected) (Homo sapiens, UniProt P51648); details: protein ALDH3A2; U3A cells
Sequence of proteins of U3A human fibrosarcoma cells (4462 proteins detected) (Homo sapiens, UniProt P51648) (P51648 whole entry): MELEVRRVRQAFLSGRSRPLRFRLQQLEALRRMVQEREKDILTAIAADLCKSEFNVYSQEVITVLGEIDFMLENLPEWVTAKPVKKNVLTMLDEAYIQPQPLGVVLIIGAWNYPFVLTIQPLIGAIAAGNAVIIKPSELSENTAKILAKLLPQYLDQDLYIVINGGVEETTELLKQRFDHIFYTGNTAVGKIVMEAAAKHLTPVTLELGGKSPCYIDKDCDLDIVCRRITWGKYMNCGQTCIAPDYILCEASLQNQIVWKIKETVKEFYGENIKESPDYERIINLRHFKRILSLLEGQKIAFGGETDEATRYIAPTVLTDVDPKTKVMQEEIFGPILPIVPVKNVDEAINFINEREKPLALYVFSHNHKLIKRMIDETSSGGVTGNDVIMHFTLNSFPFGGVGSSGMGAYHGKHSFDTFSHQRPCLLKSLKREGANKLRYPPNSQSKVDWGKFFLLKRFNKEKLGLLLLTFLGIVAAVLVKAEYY

[9] = target: proteins of U3A human fibrosarcoma cells (4462 proteins detected) (Homo sapiens, UniProt Q9BSL1); details: protein UBAC1; soluble abundance after heat, U3A cells
Sequence of proteins of U3A human fibrosarcoma cells (4462 proteins detected) (Homo sapiens, UniProt Q9BSL1) (Q9BSL1 whole entry): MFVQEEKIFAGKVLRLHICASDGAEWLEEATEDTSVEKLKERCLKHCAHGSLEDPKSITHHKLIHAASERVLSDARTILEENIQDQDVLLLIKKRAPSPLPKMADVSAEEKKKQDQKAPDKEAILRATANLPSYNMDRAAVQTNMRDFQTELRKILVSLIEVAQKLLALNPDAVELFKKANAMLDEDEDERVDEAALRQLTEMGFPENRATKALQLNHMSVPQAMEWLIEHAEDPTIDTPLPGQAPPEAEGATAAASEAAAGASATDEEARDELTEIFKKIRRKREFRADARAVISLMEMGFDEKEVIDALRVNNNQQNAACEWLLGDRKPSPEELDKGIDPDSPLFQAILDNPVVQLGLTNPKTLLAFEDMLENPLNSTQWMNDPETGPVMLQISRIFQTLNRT

[10] = target: proteins of U3A human fibrosarcoma cells (4462 proteins detected) (Homo sapiens, UniProt Q9UIG0); details: protein BAZ1B; U3A cells
[11] = target: proteins of U3A human fibrosarcoma cells (4462 proteins detected) (Homo sapiens, UniProt Q14839); details: protein CHD4; soluble abundance after heat, U3A cells
[12] = target: proteins of U3A human fibrosarcoma cells (4462 proteins detected) (Homo sapiens, UniProt P13796); details: protein LCP1; soluble abundance after heat, U3A cells
Sequence of proteins of U3A human fibrosarcoma cells (4462 proteins detected) (Homo sapiens, UniProt P13796) (P13796 whole entry): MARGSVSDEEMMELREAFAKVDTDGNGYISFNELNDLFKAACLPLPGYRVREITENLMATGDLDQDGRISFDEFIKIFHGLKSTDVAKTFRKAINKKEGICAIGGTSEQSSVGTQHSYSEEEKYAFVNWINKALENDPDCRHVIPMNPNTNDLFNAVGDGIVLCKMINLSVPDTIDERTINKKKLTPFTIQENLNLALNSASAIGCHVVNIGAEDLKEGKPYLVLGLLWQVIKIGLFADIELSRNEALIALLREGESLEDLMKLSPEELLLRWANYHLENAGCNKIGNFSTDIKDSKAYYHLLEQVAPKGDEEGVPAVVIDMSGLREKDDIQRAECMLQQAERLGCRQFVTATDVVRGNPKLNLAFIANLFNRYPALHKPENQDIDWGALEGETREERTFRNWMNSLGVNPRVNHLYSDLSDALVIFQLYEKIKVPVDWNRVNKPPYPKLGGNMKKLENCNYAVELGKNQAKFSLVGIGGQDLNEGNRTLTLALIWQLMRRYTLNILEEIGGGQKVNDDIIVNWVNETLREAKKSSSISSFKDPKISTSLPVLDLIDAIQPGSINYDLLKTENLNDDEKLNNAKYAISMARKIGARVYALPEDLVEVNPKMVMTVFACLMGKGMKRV

[13] = target: proteins of U3A human fibrosarcoma cells (4462 proteins detected) (Homo sapiens, UniProt Q92530); details: protein PSMF1; soluble abundance after heat, U3A cells
Sequence of proteins of U3A human fibrosarcoma cells (4462 proteins detected) (Homo sapiens, UniProt Q92530) (Q92530 whole entry): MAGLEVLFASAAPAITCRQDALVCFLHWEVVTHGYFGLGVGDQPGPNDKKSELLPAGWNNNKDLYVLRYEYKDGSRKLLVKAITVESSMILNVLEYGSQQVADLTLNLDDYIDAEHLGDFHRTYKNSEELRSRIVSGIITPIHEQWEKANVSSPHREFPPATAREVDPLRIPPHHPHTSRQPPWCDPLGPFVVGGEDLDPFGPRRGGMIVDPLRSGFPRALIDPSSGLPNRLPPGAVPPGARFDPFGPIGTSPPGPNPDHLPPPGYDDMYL

[14] = target: proteins of U3A human fibrosarcoma cells (4462 proteins detected) (Homo sapiens, UniProt Q86UA6); details: protein RPAIN, U3A cells
[15] = target: proteins of U3A human fibrosarcoma cells (4462 proteins detected) (Homo sapiens, UniProt P07910); details: protein HNRNPC; U3A, 10 μM, 2 h
Sequence of proteins of U3A human fibrosarcoma cells (4462 proteins detected) (Homo sapiens, UniProt P07910) (P07910 whole entry): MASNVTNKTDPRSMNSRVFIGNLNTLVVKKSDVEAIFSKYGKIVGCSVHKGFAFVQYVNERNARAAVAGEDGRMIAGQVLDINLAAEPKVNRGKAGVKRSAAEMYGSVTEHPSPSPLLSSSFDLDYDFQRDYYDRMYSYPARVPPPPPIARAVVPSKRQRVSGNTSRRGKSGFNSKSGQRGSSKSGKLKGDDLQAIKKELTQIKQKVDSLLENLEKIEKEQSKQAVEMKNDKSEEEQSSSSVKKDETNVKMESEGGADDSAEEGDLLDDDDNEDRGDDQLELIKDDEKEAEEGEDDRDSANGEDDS

[16] = target: proteins of U3A human fibrosarcoma cells (4462 proteins detected) (Homo sapiens, UniProt P21266); details: protein GSTM3, U3A cells
Sequence of proteins of U3A human fibrosarcoma cells (4462 proteins detected) (Homo sapiens, UniProt P21266) (P21266 whole entry): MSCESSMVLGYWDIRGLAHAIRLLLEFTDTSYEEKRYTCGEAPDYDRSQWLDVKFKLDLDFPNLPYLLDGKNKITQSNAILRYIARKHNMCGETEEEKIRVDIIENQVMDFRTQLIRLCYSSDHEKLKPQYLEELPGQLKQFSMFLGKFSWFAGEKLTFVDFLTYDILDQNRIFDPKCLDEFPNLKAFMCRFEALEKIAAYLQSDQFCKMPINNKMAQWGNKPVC

[17] = target: proteins of U3A human fibrosarcoma cells (4462 proteins detected) (Homo sapiens, UniProt Q8TAA5); details: protein GRPEL2; U3A cells
[18] = target: proteins of U3A human fibrosarcoma cells (4462 proteins detected) (Homo sapiens, UniProt Q9Y2Q3); details: protein GSTK1; U3A cells
Sequence of proteins of U3A human fibrosarcoma cells (4462 proteins detected) (Homo sapiens, UniProt Q9Y2Q3) (Q9Y2Q3 whole entry): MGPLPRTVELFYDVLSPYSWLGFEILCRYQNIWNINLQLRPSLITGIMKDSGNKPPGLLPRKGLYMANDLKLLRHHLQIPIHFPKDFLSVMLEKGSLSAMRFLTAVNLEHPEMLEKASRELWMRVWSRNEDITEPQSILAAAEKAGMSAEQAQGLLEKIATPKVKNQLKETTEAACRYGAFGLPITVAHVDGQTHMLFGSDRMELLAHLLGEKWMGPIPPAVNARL

[19] = target: proteins of U3A human fibrosarcoma cells (4462 proteins detected) (Homo sapiens, UniProt P49441); details: protein INPP1, U3A cells
Sequence of proteins of U3A human fibrosarcoma cells (4462 proteins detected) (Homo sapiens, UniProt P49441) (P49441 whole entry): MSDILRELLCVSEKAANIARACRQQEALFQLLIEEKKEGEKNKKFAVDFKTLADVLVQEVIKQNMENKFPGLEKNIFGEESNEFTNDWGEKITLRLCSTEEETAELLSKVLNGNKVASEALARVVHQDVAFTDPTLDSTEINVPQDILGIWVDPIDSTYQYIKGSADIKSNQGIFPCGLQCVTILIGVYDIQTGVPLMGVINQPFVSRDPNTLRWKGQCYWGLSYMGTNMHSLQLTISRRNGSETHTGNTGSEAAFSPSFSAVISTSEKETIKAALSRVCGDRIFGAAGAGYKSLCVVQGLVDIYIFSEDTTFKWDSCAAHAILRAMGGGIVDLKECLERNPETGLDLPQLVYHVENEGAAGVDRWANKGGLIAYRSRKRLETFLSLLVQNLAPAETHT

[20] = target: proteins of U3A human fibrosarcoma cells (4462 proteins detected) (Homo sapiens, UniProt Q9NVZ3); details: protein NECAP2; U3A cells
Sequence of proteins of U3A human fibrosarcoma cells (4462 proteins detected) (Homo sapiens, UniProt Q9NVZ3) (Q9NVZ3 whole entry): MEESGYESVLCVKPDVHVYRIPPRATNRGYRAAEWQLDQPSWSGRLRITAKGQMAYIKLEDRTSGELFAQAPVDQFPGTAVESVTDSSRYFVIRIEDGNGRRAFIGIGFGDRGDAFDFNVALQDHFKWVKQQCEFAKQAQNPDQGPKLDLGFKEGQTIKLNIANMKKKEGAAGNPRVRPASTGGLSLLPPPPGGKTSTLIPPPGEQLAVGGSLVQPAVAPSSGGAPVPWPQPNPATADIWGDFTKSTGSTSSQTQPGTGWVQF

[21] = target: proteins of U3A human fibrosarcoma cells (4462 proteins detected) (Homo sapiens, UniProt O75170); details: protein PPP6R2; soluble abundance after heat, U3A cells
[22] = target: proteins of U3A human fibrosarcoma cells (4462 proteins detected) (Homo sapiens, UniProt O75792); details: protein RNASEH2A; U3A cells
[23] = target: proteins of U3A human fibrosarcoma cells (4462 proteins detected) (Homo sapiens, UniProt P28290); details: protein SSFA2; U3A, 10 μM, 2 h
[24] = target: proteins of U3A human fibrosarcoma cells (4462 proteins detected) (Homo sapiens, UniProt Q9Y6M5); details: protein SLC30A1; U3A cells
Sequence of proteins of U3A human fibrosarcoma cells (4462 proteins detected) (Homo sapiens, UniProt Q9Y6M5) (Q9Y6M5 whole entry): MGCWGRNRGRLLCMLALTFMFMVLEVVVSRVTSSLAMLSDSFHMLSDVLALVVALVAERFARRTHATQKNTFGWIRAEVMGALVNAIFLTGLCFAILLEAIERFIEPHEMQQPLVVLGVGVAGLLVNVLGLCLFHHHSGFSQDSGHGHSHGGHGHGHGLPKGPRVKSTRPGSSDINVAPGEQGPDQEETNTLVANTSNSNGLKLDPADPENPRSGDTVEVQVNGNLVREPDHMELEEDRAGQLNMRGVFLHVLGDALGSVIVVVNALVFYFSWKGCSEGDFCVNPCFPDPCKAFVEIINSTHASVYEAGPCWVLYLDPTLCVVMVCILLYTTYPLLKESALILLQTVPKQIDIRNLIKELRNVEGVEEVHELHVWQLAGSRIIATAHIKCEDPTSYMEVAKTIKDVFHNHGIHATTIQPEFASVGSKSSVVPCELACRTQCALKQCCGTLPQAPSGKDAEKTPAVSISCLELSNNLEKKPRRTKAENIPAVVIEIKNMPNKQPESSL

[25] = target: proteins of U3A human fibrosarcoma cells (4462 proteins detected) (Homo sapiens, UniProt Q9BRA2); details: protein TXNDC17, U3A cells
Sequence of proteins of U3A human fibrosarcoma cells (4462 proteins detected) (Homo sapiens, UniProt Q9BRA2) (Q9BRA2 whole entry): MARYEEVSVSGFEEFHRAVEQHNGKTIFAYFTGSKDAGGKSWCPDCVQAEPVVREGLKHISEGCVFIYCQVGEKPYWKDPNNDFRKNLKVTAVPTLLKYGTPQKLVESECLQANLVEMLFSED

[26] = target: proteins of U3A human fibrosarcoma cells (4462 proteins detected) (Homo sapiens, UniProt Q9Y281); details: protein CFL2, U3A cells
[27] = target: proteins of U3A human fibrosarcoma cells (4462 proteins detected) (Homo sapiens, UniProt Q16763); details: protein UBE2S; U3A, 10 μM, 2 h
[28] = target: proteins of U3A human fibrosarcoma cells (4462 proteins detected) (Homo sapiens, UniProt P78317); details: protein RNF4, U3A cells
Sequence of proteins of U3A human fibrosarcoma cells (4462 proteins detected) (Homo sapiens, UniProt P78317) (P78317 whole entry): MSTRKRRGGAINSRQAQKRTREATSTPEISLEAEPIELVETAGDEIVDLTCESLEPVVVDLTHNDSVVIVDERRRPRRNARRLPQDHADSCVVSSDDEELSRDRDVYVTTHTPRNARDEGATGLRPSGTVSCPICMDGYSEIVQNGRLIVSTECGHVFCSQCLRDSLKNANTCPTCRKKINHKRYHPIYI

[29] = target: proteins of U3A human fibrosarcoma cells (4462 proteins detected) (Homo sapiens, UniProt Q8TAQ2); details: protein SMARCC2; soluble abundance after heat, U3A cells

## CCc1nc(N)nc(N)c1-c1ccc(Cl)cc1 [pyrimethamine]
[1]
  Log2 (PYR/DMSO), MLKL: 0.27
[2]
  Log2 (PYR/DMSO), IQCB1: -0.16
[3]
  Log2 (PYR/DMSO): 0.18
[4]
  Log2 (PYR/DMSO), RBCK1: -0.16
[5]
  Log2 (PYR/DMSO): 0.15
[6]
  Log2 (PYR/DMSO): 0.15
[7]
  Log2 (PYR/DMSO): -0.04
[8]
  Log2 (PYR/DMSO): 0.16
[9]
  Log2 (PYR/DMSO): 0.13
[10]
  Log2 (PYR/DMSO): 0.21
[11]
  Log2 (PYR/DMSO): 0.14
[12]
  Log2 (PYR/DMSO): 0.15
[13]
  Log2 (PYR/DMSO): 0.13
[14]
  Log2 (PYR/DMSO): -0.04
[15]
  Log2 (PYR/DMSO), HNRNPC: 0.27
[16]
  Log2 (PYR/DMSO): -0.04
[17]
  Log2 (PYR/DMSO): 0.18
[18]
  Log2 (PYR/DMSO): 0.18
[19]
  Log2 (PYR/DMSO): -0.04
[20]
  Log2 (PYR/DMSO): 0.21
[21]
  Log2 (PYR/DMSO): 0.13
[22]
  Log2 (PYR/DMSO): 0.16
[23]
  Log2 (PYR/DMSO), SSFA2: -0.15
[24]
  Log2 (PYR/DMSO): 0.16
[25]
  Log2 (PYR/DMSO): -0.05
[26]
  Log2 (PYR/DMSO): -0.04
[27]
  Log2 (PYR/DMSO), UBE2S: 0.25
[28]
  Log2 (PYR/DMSO): -0.04
[29]
  Log2 (PYR/DMSO): 0.13
